We go through 15 molecules from ChEMBL document CHEMBL5291721, “A preclinical secondary pharmacology resource illuminates target-adverse drug reaction associations of marketed drugs” (Nat Commun, 2023).

The target in experiment [1] is T1, 5-hydroxytryptamine receptor 2C (Homo sapiens, UniProt P28335).
T1 sequence (P28335 whole entry): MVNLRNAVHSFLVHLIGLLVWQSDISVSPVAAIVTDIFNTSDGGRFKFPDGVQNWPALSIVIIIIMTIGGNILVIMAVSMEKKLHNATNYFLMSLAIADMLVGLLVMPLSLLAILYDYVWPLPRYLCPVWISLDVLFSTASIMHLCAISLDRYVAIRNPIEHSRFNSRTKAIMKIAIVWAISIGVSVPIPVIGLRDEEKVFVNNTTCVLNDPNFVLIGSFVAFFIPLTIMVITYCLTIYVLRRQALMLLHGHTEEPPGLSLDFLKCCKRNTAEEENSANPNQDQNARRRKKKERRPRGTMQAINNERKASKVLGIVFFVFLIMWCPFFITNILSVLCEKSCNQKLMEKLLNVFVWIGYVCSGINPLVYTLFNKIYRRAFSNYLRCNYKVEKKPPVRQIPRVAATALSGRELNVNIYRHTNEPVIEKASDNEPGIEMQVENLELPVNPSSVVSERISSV

A further experiment addresses D(3) dopamine receptor (Homo sapiens, UniProt P35462).
The target of a further experiment is T2, Adenosine receptor A3 (Homo sapiens, UniProt P0DMS8).
T2 sequence (P0DMS8 whole entry): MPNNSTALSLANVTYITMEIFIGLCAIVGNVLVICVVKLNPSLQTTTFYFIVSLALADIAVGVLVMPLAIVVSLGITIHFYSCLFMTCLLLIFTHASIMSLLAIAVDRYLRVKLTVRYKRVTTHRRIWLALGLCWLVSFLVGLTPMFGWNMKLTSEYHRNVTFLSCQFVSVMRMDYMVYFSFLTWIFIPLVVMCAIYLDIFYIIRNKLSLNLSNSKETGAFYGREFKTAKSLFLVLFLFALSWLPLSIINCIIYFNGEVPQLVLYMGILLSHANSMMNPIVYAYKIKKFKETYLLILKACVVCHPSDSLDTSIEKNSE

Experiment [2] has as its target cGMP-inhibited 3',5'-cyclic phosphodiesterase 3A (Homo sapiens, UniProt Q14432). It is filed as functional.
A further experiment deals with D(1A) dopamine receptor (Homo sapiens, UniProt P21728). The class given is functional, cell-based.
D(1A) dopamine receptor, sequence (P21728 whole entry): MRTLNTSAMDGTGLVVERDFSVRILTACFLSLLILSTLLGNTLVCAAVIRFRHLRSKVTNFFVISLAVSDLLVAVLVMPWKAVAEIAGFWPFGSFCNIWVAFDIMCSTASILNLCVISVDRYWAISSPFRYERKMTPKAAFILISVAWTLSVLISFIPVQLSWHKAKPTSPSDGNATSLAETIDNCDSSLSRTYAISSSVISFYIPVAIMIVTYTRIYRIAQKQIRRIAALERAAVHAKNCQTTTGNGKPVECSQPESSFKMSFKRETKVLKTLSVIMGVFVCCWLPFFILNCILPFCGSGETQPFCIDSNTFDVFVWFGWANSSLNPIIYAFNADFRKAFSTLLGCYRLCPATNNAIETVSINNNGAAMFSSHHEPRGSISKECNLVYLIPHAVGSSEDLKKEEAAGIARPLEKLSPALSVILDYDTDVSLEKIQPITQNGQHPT
The target of another experiment is T3, Thromboxane A2 receptor (Homo sapiens, UniProt P21731).
T3 sequence (P21731 whole entry): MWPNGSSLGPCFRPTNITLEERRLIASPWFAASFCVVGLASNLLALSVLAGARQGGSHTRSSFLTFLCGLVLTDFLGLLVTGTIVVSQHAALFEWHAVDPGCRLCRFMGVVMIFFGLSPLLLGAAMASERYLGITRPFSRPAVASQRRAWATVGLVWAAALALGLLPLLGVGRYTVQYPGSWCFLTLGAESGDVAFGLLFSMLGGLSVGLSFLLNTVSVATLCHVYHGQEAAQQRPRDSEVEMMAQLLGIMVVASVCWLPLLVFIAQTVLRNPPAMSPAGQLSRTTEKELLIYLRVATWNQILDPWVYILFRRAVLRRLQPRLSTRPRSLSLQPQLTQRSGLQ

Experiment [3] has as its target 5-hydroxytryptamine receptor 2B (Homo sapiens, UniProt P41595). The class given is functional, cell-based.
Another experiment concerns the target T4, Adenosine receptor A1 (Homo sapiens, UniProt P30542).
T4 sequence (P30542 whole entry): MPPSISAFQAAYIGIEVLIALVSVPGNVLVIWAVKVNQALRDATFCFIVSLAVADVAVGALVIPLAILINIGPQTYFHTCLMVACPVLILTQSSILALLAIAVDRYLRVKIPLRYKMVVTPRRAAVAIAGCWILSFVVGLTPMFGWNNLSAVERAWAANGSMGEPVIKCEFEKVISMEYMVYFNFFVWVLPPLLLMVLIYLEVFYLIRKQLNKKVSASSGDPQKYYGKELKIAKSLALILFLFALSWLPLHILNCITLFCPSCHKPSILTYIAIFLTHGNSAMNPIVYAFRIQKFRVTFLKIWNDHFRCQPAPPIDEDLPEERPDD

The target in a further experiment is Melanocortin receptor 3 (Homo sapiens, UniProt P41968).
Melanocortin receptor 3, sequence (P41968 whole entry): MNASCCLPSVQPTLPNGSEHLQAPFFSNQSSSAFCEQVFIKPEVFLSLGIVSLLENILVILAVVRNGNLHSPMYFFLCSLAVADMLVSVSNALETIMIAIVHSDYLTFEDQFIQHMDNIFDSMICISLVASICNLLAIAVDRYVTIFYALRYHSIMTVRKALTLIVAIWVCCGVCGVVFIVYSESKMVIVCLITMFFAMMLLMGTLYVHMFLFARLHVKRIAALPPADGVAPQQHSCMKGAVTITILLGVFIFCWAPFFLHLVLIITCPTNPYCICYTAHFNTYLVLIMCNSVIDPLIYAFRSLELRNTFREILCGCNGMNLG
Further: assay procedure not described here.

5-hydroxytryptamine receptor 2B, sequence (P41595 whole entry): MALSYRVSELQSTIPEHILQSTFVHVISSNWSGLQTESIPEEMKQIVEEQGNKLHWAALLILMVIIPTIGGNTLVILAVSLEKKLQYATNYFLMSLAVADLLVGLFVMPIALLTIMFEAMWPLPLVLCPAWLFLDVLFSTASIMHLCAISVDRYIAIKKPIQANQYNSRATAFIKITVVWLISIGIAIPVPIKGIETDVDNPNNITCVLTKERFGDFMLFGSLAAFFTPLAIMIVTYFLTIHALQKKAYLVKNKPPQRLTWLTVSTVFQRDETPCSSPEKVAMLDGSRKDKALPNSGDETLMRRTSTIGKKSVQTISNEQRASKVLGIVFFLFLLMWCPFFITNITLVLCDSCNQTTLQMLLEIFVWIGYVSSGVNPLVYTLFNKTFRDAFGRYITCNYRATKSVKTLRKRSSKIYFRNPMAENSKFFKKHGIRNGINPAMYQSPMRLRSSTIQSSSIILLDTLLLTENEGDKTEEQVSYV
D(3) dopamine receptor, sequence (P35462 whole entry): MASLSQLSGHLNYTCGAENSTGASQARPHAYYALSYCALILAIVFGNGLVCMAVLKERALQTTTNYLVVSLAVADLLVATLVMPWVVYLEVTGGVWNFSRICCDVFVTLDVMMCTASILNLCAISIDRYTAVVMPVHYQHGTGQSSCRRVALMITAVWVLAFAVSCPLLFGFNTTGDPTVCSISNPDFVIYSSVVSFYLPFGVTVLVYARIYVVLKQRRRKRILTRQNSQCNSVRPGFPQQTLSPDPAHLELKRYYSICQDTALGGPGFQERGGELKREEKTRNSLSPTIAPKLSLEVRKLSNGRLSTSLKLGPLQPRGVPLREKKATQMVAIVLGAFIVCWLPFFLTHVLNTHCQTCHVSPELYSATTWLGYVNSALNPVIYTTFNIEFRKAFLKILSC
cGMP-inhibited 3',5'-cyclic phosphodiesterase 3A, sequence (Q14432 whole entry): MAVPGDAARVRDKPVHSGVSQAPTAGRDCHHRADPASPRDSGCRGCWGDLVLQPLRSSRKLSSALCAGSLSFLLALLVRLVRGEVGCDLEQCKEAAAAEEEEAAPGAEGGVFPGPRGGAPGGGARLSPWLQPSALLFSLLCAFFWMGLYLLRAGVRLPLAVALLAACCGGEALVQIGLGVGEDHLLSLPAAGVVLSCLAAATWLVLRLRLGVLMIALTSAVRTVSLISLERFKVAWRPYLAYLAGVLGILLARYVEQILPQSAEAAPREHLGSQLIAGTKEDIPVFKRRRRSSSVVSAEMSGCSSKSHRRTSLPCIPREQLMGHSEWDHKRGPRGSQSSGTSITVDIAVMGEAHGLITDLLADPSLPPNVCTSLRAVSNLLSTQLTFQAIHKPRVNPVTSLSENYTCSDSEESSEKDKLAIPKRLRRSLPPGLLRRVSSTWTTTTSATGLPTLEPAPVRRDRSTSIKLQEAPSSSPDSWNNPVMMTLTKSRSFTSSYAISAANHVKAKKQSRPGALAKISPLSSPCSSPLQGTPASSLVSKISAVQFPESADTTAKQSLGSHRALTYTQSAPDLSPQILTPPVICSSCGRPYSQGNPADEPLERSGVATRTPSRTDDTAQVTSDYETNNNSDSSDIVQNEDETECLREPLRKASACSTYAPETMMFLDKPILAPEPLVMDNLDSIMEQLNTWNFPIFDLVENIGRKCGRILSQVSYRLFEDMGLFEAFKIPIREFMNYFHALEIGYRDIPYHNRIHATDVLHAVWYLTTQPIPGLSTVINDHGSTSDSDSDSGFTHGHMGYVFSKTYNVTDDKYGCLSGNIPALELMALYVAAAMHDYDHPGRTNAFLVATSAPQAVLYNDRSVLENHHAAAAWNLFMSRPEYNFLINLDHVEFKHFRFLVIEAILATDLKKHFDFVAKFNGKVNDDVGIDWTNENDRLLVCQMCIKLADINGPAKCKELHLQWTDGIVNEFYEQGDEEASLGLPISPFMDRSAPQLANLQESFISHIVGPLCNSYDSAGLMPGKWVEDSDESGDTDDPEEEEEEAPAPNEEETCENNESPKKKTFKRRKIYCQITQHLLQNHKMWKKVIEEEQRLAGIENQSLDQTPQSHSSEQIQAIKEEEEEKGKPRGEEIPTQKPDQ

For orientation: AC50 means the concentration at which the activity in the assay is half-maximal. High values mean weaker potency, low ones greater potency. As to `Oc1cc(O)c(Cl)cn1`, the AC50 (in [1]; on D(3) dopamine receptor; at Adenosine receptor A3; in experiment [2]; at D(1A) dopamine receptor; at Thromboxane A2 receptor) was more than 30 µM in each case. For the same molecule, the AC50 (in experiment [3]; at Adenosine receptor A1; on Melanocortin receptor 3) was more than 30 µM throughout.
With `CCC1(CCC(C)C)C(=O)NC(=O)NC1=O` [AMOBARBITAL], the AC50 in experiment [1] is more than 30 µM; at D(3) dopamine receptor it was more than 30 µM; on Adenosine receptor A3 it was more than 10 µM; in experiment [2] it was more than 30 µM; on D(1A) dopamine receptor, more than 10 µM; on Thromboxane A2 receptor, more than 10 µM. Besides, the AC50 (in experiment [3]; at Adenosine receptor A1; on Melanocortin receptor 3) was more than 10 µM throughout.
Turning to `Cc1cc(=O)n(-c2ccccc2)n1C` [ANTIPYRINE], the AC50 was more than 30 µM in experiment [1]; more than 10 µM on D(3) dopamine receptor; more than 30 µM on Adenosine receptor A3; more than 30 µM in [2]; more than 10 µM at D(1A) dopamine receptor; more than 30 µM on Thromboxane A2 receptor. The AC50 was more than 10 µM in [3], more than 30 µM at Adenosine receptor A1 and more than 30 µM on Melanocortin receptor 3.
`O=C(O)c1ccc(NC(=O)[C@H](Cc2ccc(O)cc2)NC(=O)c2ccccc2)cc1` [BENTIROMIDE]: the AC50 was more than 30 µM in experiment [1]; more than 30 µM at D(3) dopamine receptor; more than 10 µM at Adenosine receptor A3; more than 30 µM in experiment [2]; more than 10 µM at D(1A) dopamine receptor; more than 10 µM at Thromboxane A2 receptor. In addition, the AC50 (in experiment [3]; at Adenosine receptor A1; on Melanocortin receptor 3) was more than 10 µM each time.
As for `C[C@@H]1C[C@H]2[C@@H]3CCC4=CC(=O)C=C[C@]4(C)[C@@]3(F)[C@@H](O)C[C@]2(C)[C@@]1(O)C(=O)CO` [DEXAMETHASONE], the AC50 (in experiment [1]; at D(3) dopamine receptor; at Adenosine receptor A3; in experiment [2]; at D(1A) dopamine receptor; on Thromboxane A2 receptor) was more than 30 µM each time. Also, the AC50 in experiment [3] was more than 10 µM; on Adenosine receptor A1, more than 30 µM; on Melanocortin receptor 3, more than 30 µM.
`CC(C)[C@@H](C)/C=C/[C@@H](C)[C@H]1CC[C@H]2/C(=C/C=C3\C[C@@H](O)CC[C@@H]3C)CCC[C@]12C` [DIHYDROTACHYSTEROL]: the AC50 in experiment [1] was more than 30 µM; on D(3) dopamine receptor, more than 30 µM; at Adenosine receptor A3 it was more than 10 µM; in [2], more than 30 µM; on D(1A) dopamine receptor it was more than 10 µM; at Thromboxane A2 receptor, more than 10 µM. Moreover, the AC50 (in experiment [3]; at Adenosine receptor A1; at Melanocortin receptor 3) was more than 10 µM each time.
As to `Oc1ccc(CCNCCCCCCNCCc2ccccc2)cc1O` [DOPEXAMINE], the AC50 in [1] was more than 30 µM; at D(3) dopamine receptor, 0.16 µM; at Adenosine receptor A3, 12 µM; in [2], more than 30 µM; on D(1A) dopamine receptor, 23 µM; at Thromboxane A2 receptor, more than 30 µM. In addition, the AC50 (in experiment [3]; on Adenosine receptor A1; on Melanocortin receptor 3) was more than 30 µM in each case.
In the case of `CC(C)NC[C@H](O)COc1ccc(CC(N)=O)cc1` [ESATENOLOL], the AC50 in experiment [1] is more than 10 µM; at D(3) dopamine receptor, more than 10 µM; on Adenosine receptor A3 it was more than 30 µM; in [2] it was more than 10 µM; on Thromboxane A2 receptor, more than 30 µM; at Adenosine receptor A1, more than 30 µM. The same molecule gave an AC50 at Melanocortin receptor 3 of more than 30 µM.
In the case of `CCOC(=O)c1ncn2c1CN(C)C(=O)c1cc(F)ccc1-2` [FLUMAZENIL], the AC50 (in experiment [1]; at D(3) dopamine receptor; on Adenosine receptor A3; in experiment [2]; on D(1A) dopamine receptor; at Thromboxane A2 receptor) was more than 30 µM throughout. The AC50 (in experiment [3]; on Adenosine receptor A1; on Melanocortin receptor 3) was more than 30 µM throughout.
On to `CO[C@H]1C[C@H](O[C@H]2CC[C@@]3(C)[C@H](CC[C@@H]4[C@@H]3CC[C@]3(C)[C@@H](C5=CC(=O)OC5)[C@@H](OC(C)=O)C[C@]43O)C2)O[C@@H](C)[C@@H]1O` [OLEANDRIN], for which the AC50 (in experiment [1]; on D(3) dopamine receptor; in experiment [2]; at D(1A) dopamine receptor; in experiment [3]) was more than 30 µM in each case.
Turning to `CCC(=O)O[C@](Cc1ccccc1)(c1ccccc1)[C@H](C)CN(C)C` [PROPOXYPHENE], the AC50 is more than 30 µM in [1]; more than 10 µM on D(3) dopamine receptor; more than 30 µM on Adenosine receptor A3; more than 30 µM in experiment [2]; more than 10 µM on D(1A) dopamine receptor; more than 30 µM at Thromboxane A2 receptor. The AC50 in experiment [3] was more than 10 µM; at Adenosine receptor A1 it was more than 30 µM; on Melanocortin receptor 3 it was more than 30 µM.
For the molecule `O=c1c(O)c(-c2ccc(O)c(O)c2)oc2cc(O)cc(O)c12` [QUERCETIN], the AC50 in experiment [1] is more than 30 µM; on D(3) dopamine receptor, more than 30 µM; on Adenosine receptor A3, 4.2 µM; in [2], more than 30 µM; at D(1A) dopamine receptor it was more than 10 µM; at Thromboxane A2 receptor, more than 30 µM. Moreover, the AC50 (in [3]; on Melanocortin receptor 3) was more than 30 µM in each case.
On to `CC1=C(/C=C/C(C)=C/C=C/C(C)=C/CO)C(C)(C)CCC1` [RETINOL], for which the AC50 in experiment [1] was more than 30 µM; on D(3) dopamine receptor, more than 30 µM; at Adenosine receptor A3, more than 10 µM; in experiment [2] it was more than 30 µM; on D(1A) dopamine receptor, more than 10 µM; at Thromboxane A2 receptor, more than 10 µM. In addition, the half-maximal activity concentration (AC50) (in [3]; on Adenosine receptor A1; at Melanocortin receptor 3) was more than 10 µM each time.
In the case of `CCCN1CCCC[C@H]1C(=O)Nc1c(C)cccc1C` [ROPIVACAINE], the AC50 (in [1]; at D(3) dopamine receptor; at Adenosine receptor A3; in experiment [2]; on D(1A) dopamine receptor; on Thromboxane A2 receptor) was more than 30 µM throughout. For the same molecule, the AC50 (in experiment [3]; at Adenosine receptor A1; on Melanocortin receptor 3) was more than 30 µM each time.
For `CCCCCCCC(=O)CC[C@@H]1[C@@H](C/C=C\CCCC(=O)OC(C)C)[C@@H](O)C[C@H]1O` [UNOPROSTONE ISOPROPYL], the AC50 on D(3) dopamine receptor was more than 30 µM; on Adenosine receptor A3, 5.6 µM; in experiment [2], more than 30 µM; in experiment [3], 0.89 µM; at Melanocortin receptor 3, 27 µM.
